The values that follow come from patent publication US8420667B2, “Isoquinolinone derivatives as NK3 antagonists” (H. Lundbeck A/S, priority 2008, dated 2013).

The structures appear in SMILES notation.

The first assay has as its target T1, NK3 receptor (Homo sapiens, UniProt P29371).
T1 sequence (P29371 1-465): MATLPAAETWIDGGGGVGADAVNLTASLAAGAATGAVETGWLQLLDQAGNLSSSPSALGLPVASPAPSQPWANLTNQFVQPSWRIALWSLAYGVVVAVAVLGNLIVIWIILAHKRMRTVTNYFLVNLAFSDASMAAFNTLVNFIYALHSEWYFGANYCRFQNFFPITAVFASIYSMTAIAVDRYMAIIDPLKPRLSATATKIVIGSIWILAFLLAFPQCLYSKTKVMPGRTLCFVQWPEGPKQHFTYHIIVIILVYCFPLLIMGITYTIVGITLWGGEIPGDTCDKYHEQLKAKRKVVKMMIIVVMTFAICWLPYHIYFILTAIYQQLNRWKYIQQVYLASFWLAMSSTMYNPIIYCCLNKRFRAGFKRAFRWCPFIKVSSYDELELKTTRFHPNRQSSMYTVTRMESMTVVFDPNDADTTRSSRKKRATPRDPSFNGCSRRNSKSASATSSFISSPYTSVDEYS
Assay: not given
To be noted: clinical trials; cited from earlier work.
Consider `CC[C@H](NC(=O)c1c(O)c(-c2ccccc2)nc2ccccc12)c1ccccc1` [talnetant], for which the “effect on cognitive behaviour of schizophrenics” value is “ameliorate the cognitive behaviour of schizophrenics”.

In a further assay the target is T1, NK3 receptor. Briefly: NK3 receptor affinity (Ki). It is filed as binding.
Settings: not given
Usually Ki stands for a measure of affinity in units of concentration, obtained from inhibition or displacement. `Cc1c(C(=O)NC(c2ccccc2F)C2CCC2)c2cccc(Cl)c2c(=O)n1-c1ccccc1` (stereo not drawn) [Example 1bo, 8-Chloro-3-methyl-1-oxo-2-phenyl-1,2-dihydro-isoquinoline-4-carboxylic acid [cyclobutyl-(2-fluoro-phenyl)-methyl]-amide] returned a Ki of 150 nM. As to `Cc1c(C(=O)N[C@H](c2cccc(F)c2)C2CCC2)c2cccc(Cl)c2c(=O)n1-c1ccccc1` [Example 1bh, 8-Chloro-3-methyl-1-oxo-2-phenyl-1,2-dihydro-isoquinoline-4-carboxylic acid [(S)-cyclobutyl-(3-fluoro-phenyl)-methyl]-amide], the Ki stood at 31 nM. With `Cc1c(C(=O)N[C@H](c2ccc(Cl)cc2)C2CC2)c2cccc(Cl)c2c(=O)n1-c1ccccc1` [Example 1ax, 8-Chloro-3-methyl-1-oxo-2-phenyl-1,2-dihydro-isoquinoline-4-carboxylic acid [(S)-(4-chloro-phenyl)-cyclopropyl-methyl]-amide], the Ki was found to be 150 nM. As for `Cc1c(C(=O)N[C@H](c2ccc(F)cc2)C2CC2)c2cccc(Cl)c2c(=O)n1-c1ccccc1` [Example 1ba, 8-Chloro-3-methyl-1-oxo-2-phenyl-1,2-dihydro-isoquinoline-4-carboxylic acid [(S)-cyclopropyl-(4-fluoro-phenyl)-methyl]-amide], the affinity, expressed as Ki, was 55 nM. For `CC[C@H](NC(=O)c1c(C)n(-c2ccccc2)c(=O)c2c(Cl)cccc12)c1ccc(Cl)cc1` [Example 1as, 8-Chloro-3-methyl-1-oxo-2-phenyl-1,2-dihydro-isoquinoline-4-carboxylic acid [(S)-1-(4-chloro-phenyl)-propyl]-amide], the affinity corresponds to a Ki of 250 nM.

The compound `CC[C@H](NC(=O)c1c(C)n(-c2ccccc2)c(=O)c2c(Cl)cccc12)c1cccc(Cl)c1` [Example 1av, 8-Chloro-3-methyl-1-oxo-2-phenyl-1,2-dihydro-isoquinoline-4-carboxylic acid [(S)-1-(3-chloro-phenyl)-propyl]-amide] had a Ki of 39 nM. On the same count and under the same terms, in the case of `CC[C@H](NC(=O)c1c(C)n(-c2ccccc2)c(=O)c2c(Cl)cccc12)c1ccccc1F` [Example 1au, 8-Chloro-3-methyl-1-oxo-2-phenyl-1,2-dihydro-isoquinoline-4-carboxylic acid [(S)-1-(2-fluoro-phenyl)-propyl]-amide] it was 270 nM; in that of `Cc1c(C(=O)N[C@H](c2ccccc2F)C2CC2)c2cccc(Cl)c2c(=O)n1-c1ccccc1` [Example 1be, 8-Chloro-3-methyl-1-oxo-2-phenyl-1,2-dihydro-isoquinoline-4-carboxylic acid [(S)-cyclopropyl-(2-fluoro-phenyl)-methyl]-amide], 45 nM; in that of `Cc1c(C(=O)N[C@@H](c2cccc(F)c2)C2CC2)c2cccc(Cl)c2c(=O)n1-c1ccccc1` [Example 1bl, 8-Chloro-3-methyl-1-oxo-2-phenyl-1,2-dihydro-isoquinoline-4-carboxylic acid [(R)-cyclopropyl-(3-fluoro-phenyl)-methyl]-amide], 810 nM.

`CC[C@H](NC(=O)c1c(C)n(-c2ccccc2)c(=O)c2c(Cl)cccc12)c1cccc(F)c1` [Example 1ay, 8-Chloro-3-methyl-1-oxo-2-phenyl-1,2-dihydro-isoquinoline-4-carboxylic acid [(S)-1-(3-fluoro-phenyl)-propyl]-amide] showed a Ki of 47 nM. On the same count and under the same terms, in the case of `Cc1c(C(=O)N[C@H](c2ccccc2Cl)C2CC2)c2cccc(Cl)c2c(=O)n1-c1ccccc1` [Example 1bd, 8-Chloro-3-methyl-1-oxo-2-phenyl-1,2-dihydro-isoquinoline-4-carboxylic acid [(S)-(2-chloro-phenyl)-cyclopropyl-methyl]-amide] it was 49 nM; in that of `Cc1c(C(=O)N[C@H](c2ccc(F)cc2)C2CCC2)c2cccc(Cl)c2c(=O)n1-c1ccccc1` [Example 1bi, 8-Chloro-3-methyl-1-oxo-2-phenyl-1,2-dihydro-isoquinoline-4-carboxylic acid [(S)-cyclobutyl-(4-fluoro-phenyl)-methyl]-amide], 31 nM. Still for that read-out and setting: to `Cc1c(C(=O)N[C@H](c2cccc(F)c2)C2CCC2)c2cccc(F)c2c(=O)n1-c1ccccc1` [Example 7h, 8-Fluoro-3-methyl-1-oxo-2-phenyl-1,2-dihydro-isoquinoline-4-carboxylic acid [(S)-cyclobutyl-(3-fluoro-phenyl)-methyl]-amide] belongs 10 nM; to `CC[C@H](NC(=O)c1c(C)n(-c2ccccc2)c(=O)c2c(Cl)cccc12)c1ccc(F)cc1` [Example 1at, 8-Chloro-3-methyl-1-oxo-2-phenyl-1,2-dihydro-isoquinoline-4-carboxylic acid [(S)-1-(4-fluoro-phenyl)-propyl]-amide], 180 nM. In turn, `Cc1c(C(=O)N[C@H](c2cccc(F)c2)C2CC2)c2cccc(F)c2c(=O)n1-c1ccccc1` [Example 7e, 8-Fluoro-3-methyl-1-oxo-2-phenyl-1,2-dihydro-isoquinoline-4-carboxylic acid [(S)-cyclopropyl-(3-fluoro-phenyl)-methyl]-amide] gave a Ki of 15 nM.

`CC[C@H](NC(=O)c1c(C)n(-c2ccccc2)c(=O)c2c(Cl)cccc12)c1ccccc1Cl` [Example 1bb, 8-Chloro-3-methyl-1-oxo-2-phenyl-1,2-dihydro-isoquinoline-4-carboxylic acid [(S)-1-(2-chloro-phenyl)-propyl]-amide] showed a Ki of 240 nM. `Cc1c(C(=O)N[C@H](c2cccc(Cl)c2)C2CC2)c2cccc(Cl)c2c(=O)n1-c1ccccc1` [Example 1aw, 8-Chloro-3-methyl-1-oxo-2-phenyl-1,2-dihydro-isoquinoline-4-carboxylic acid [(S)-(3-chloro-phenyl)-cyclopropyl-methyl]-amide] registered a Ki of 59 nM.
